In data set [1] the test system is S. cerevisiae. The data set is described as follows: Toxicity of organic phase (overlay/underlay) compounds to growth of the host strain. The note with it: for toxicity to growth: compound as organic phase. The source says: In-situ liquid-liquid extraction (biphasic fermentation) is a strategy that can be employed in accordance with the present invention for physical separation of product from microorganisms via partitioning into the water immiscible organic liquid phase from an aqueous culture phase. The organic liquid phase or organic phase is present as either an overlay if its density is less than that of the aqueous phase, or an underlay if its density is greater than that of the aqueous phase. Certain properties of the overlay or underlay are considered for production of olivetolic acid/olivetol and other resorcinols such as of formulas IA and IB: (1) non-toxic or low toxicity for growth of the host strain, and/or (2) a favorable partitioning coefficient of the product in the organic phase vs. the aqueous phase, and/or (3) preferably a lower partition coefficient for fed hexanoic acid (for olivetolic acid/olivetol) or other fatty acid such as RCO2H (for other resorcinols) in the organic phase vs. the aqueous phase. Additional properties of the organic phase enhance its suitability for downstream conversion, e.g. and without limitation, to cannabigerol and other cannabinoid compounds, including suitability as a solvent or co-solvent during downstream prenylation or other reactions, and boiling point if downstream separation by distillation is employed.

Data set [2] concerns hexanoic acid. The data set is described as follows: Two plasmid screening system for relative AAE activity, hexanoic acid feeding. Type of data set: cell-based, Saccharomyces cerevisiae. The note with it: for Olivetol / Olivetolic acid: average production, LSC3-297/pLOA-049 plus AAE plasmid, Delft medium pH 6.5, 3.44 mM hexanoic acid, 48 hours. The source says: (§1) In order to perform in vivo screening in Saccharomyces cerevisiae for acyl activating enzyme (AAE) variants with enhanced activity and/or expression, a two plasmid screening system was employed to generate an artificial bottleneck in AAE activity. This bottleneck was generated by natural copy number variation of the two plasmids, with a multi-copy 2 micron episomal plasmid, pLOA-049, harboring an olivetol synthase homologue from C. sativa (CsTKS) fused with a T2A self-cleaving peptide (Kearsey et al., FEBS J. 287:1511-1524, 2020) to a gene encoding olivetol acid cyclase from C. sativa (CsOAC), and a lower copy centromeric plasmid with an autonomous replicating sequence (CEN/ARS) harboring different acyl activating enzymes/acyl-CoA synthetases from different organisms. Markers employed on the 2 micron plasmid were orotidine-5′-phosphate decarboxylase from S. cerevisiae (URA3) and on the CEN/ARS plasmid, the multifunctional histidine biosynthesis gene HIS4 from S. cerevisiae. The cassette architecture in the plasmids was based on integrated cassettes in production strain LSC3-2, with a pGAL1-10 bidirectional promoter driving expression of CsTKS and CsOAC from pGAL1 with a S. cerevisiae CYC1 terminator, and insulated downstream of pGAL10 by a S. cerevisiae GRE3 terminator. Likewise on the CEN/ARS plasmid, a bidirectional pGAL1-10 promoter drives expression of CsAAE1 from pGAL10 with a S. cerevisiae GRE3 terminator, and is insulated downstream of pGAL1 by a S. cerevisiae CYC1 terminator.
(§2) To screen activity of AAE variants, first a CEN/ARS containing plasmid expressing AAEs co-transformed with the 2 micron plasmid expressing CsTKS translationally fused to CsOAC via the T2A self-cleaving peptide into strain LSC3-297 using the transformation method described by Gietz and Schiestl (Nat. Protocols 2:31-34, 2007). Double plasmid transformants were selected on YNB agar with 2% (w/v) glucose and CSM minus histidine and minus uracil (CSM-His-Ura, Sunrise Science Products) and grown in a 30° C. incubator for approximately 48 hours or at room temperature for approximately 72 hours. Individual colonies were picked into wells of 96 deepwell plates containing 0.3 mL per well of Delft medium with 2% (w/v) glucose and 0.75 g/L CSM-His-Ura. Delft medium base contains (per liter solution) 7.5 g ammonium sulfate, 14.4 g potassium phosphate monobasic (added from a 1 M stock solution adjusted to pH 6.5 with sodium hydroxide), 0.5 g magnesium sulfate heptahydrate, 3.6 mL of a trace metal solution (consisting of 130 g/L citric acid monohydrate, 0.574 g/L copper (II) sulfate pentahydrate, 8.07 g/L iron (III) chloride hexahydrate, 0.5 g/L boric acid, 0.333 g/L manganese (II) chloride, 0.2 g/L sodium molybdate, and 4.67 g/L zinc sulfate heptahydrate), and 1.0 ml of a vitamin solution (0.008 g/L biotin, 1.6 g/L calcium pantothenate, 0.008 g/L folic acid, 8 g/L myo-inositol, 1.6 g/L nicotinic acid, 0.8 g/L p-aminobenzoic acid, 1.6 g/L pyridoxal hydrochloride, 0.8 g/L riboflavin, 1.6 g/L thiamine hydrochloride, adjusted to pH […] with sodium hydroxide). Plates were grown for 16-24 hours at 30° C. in a plate shaker incubator maintained at 80% relative humidity and 900 rpm shaking (3 mm diameter throw). Ten microliters of preculture was then used to inoculate wells of 96 deepwell plates containing 0.3 mL per well of Delft medium with 2% (w/v) glucose, 0.75 g/L CSM-His-Ura, either 9.08 mM butyric acid or 3.44 mM hexanoic acid, and for divarin/divarinic acid, additionally 150 mM 2-(N-morpholino) ethanesulfonic acid (MES) at pH 5.5 and with the additional modification of the 1 M potassium phosphate monobasic stock in the Delft medium base also adjusted to pH 5.5 (for olivetol/olivetolic acid production from hexanoic acid, no MES was added and potassium phosphate monobasic solution used in the Delft medium base was at pH 6.5). […]

The subject of data set [3] is butyric acid. The data set is described as follows: Two plasmid screening system for relative AAE activity, butyric acid feeding. The format is cell-based, Saccharomyces cerevisiae. The note with it: for Divarin / Divarinic acid: average production, LSC3-297/pLOA-049 plus AAE plasmid, Delft medium pH 5.5 with 150 mM MES, 9.08 mM butyric acid, 48 hours.
Description: as §1, §2

On to “2,2,4-trimethyl-1,3-pentanediol monoisobutyrate [Texanol]”, for which, in data set [1] (under the test conditions), the toxicity to growth entry is listed as “inhibitory to growth”.

As for `CCCCCCCCCCO` [Decanol], the toxicity to growth result in data set [1] (under the test conditions) is “toxic to growth”.

Take `CCCCOC(=O)CCCCCCCCC(=O)OCCCC` [Dibutyl sebacate]: the toxicity to growth result in data set [1] (under the test conditions) is reported as “completely non-inhibitory to growth”.

For the molecule `CCCCCCCCCCCCCC(=O)OC(C)C` [IPM, isopropyl myristate], the toxicity to growth result in data set [1] (under the test conditions) is “non-toxic”.

Regarding `CCCCCCCC(=O)OC(C)C` [Isopropyl octanoate], the toxicity to growth entry in data set [1] (under the test conditions) was “moderately inhibitory but allowed for some growth”.

For `CCCCCCCC(=O)OCC(COC(=O)CCCCCCC)OC(=O)CCCCCCC` [Tricaprylin], in data set [1] (under the test conditions), the toxicity to growth entry was “fairly toxic, however allowed some growth of strains”.

With `CCCCCCCCCCCC(=O)OCCCC` [butyl laurate], the toxicity to growth result in data set [1] (under the test conditions) is listed as “non-toxic”.

On to `CC(C)(C)OC(=O)CC(=O)OC(C)(C)C` [di-tert-butyl malonate], for which, in data set [1] (1-10% (v/v), particularly 1-2.5% (v/v), in IPM and isopar M), the “toxicity toward growth of mixtures” value was “much lower toxicity”. The results for the toxicity to growth entry in data set [1] (with galactose addition) and in data set [1] (with glucose addition) were “appearing toxic or to induce substantial lag” and “supported growth of all strains”, respectively.

With `CCCCOC(=O)CCCCC(=O)OCCCC` [dibutyl adipate], the toxicity to growth result in data set [1] (under the test conditions) was “no apparent toxicity”.

Turning to `CCOC(=O)C(CC)(CC)C(=O)OCC` [diethyl diethylmalonate], the toxicity to growth result is recorded as “substantial lag” in data set [1] (with galactose addition) and “modest growth by most strains” in data set [1] (with glucose addition).

Take `CCOC(=O)CCCCCCCCC(=O)OCC` [diethyl sebacate]: the toxicity to growth entry is reported as “moderately growth inhibitory” in data set [1] (under the test conditions), “substantial lag” in data set [1] (with galactose addition) and “modest growth by most strains” in data set [1] (with glucose addition).

As for `CC(C)OC(=O)CCCCC(=O)OC(C)C` [diisopropyl adipate], the toxicity to growth result in data set [1] (under the test conditions) is “Growth was observed”.

On to `CCCCCCCCCCCC` [dodecane], for which the toxicity to growth entry in data set [1] (under the test conditions) is “Lack of toxicity”.

As to `CCCCCCCCCC(=O)OCC` [ethyl decanoate], the toxicity to growth entry in data set [1] (under the test conditions) is “increasingly non-toxic”.

Turning to `CCCCCCCCCCCC(=O)OCC` [ethyl laurate], the toxicity to growth result in data set [1] (under the test conditions) is given as “non-toxic”.

Regarding `CCCCCCCCCCCCCC(=O)OCC` [ethyl myristate], the toxicity to growth entry in data set [1] (under the test conditions) is reported as “non-toxic”.

For `CCCCCCCCCCCCCCCC` [hexadecane], the toxicity to growth result in data set [1] (under the test conditions) is reported as “Lack of toxicity”.

For the molecule `CCCCCCOC(=O)CCCCC` [hexyl hexanoate], the toxicity to growth result in data set [1] (under the test conditions) is given as “moderately non-toxic”.

Consider `CCCCCCCCCC(=O)OC` [methyl decanoate], for which, in data set [1] (under the test conditions), the toxicity to growth result is “moderately inhibitory to growth but still allowed for growth”.

In the case of `CCCCCCCCCCCCCC(=O)OC` [methyl myristate], in data set [1] (under the test conditions), the toxicity to growth entry was “non-toxic”.

For `CCCCCCCCOC(C)=O` [octyl acetate], in data set [1] (under the test conditions), the toxicity to growth result was “toxic”.

`CCCCCCCC/C=C\CCCCCCCCO` [oleyl alcohol]: the toxicity to growth entry in data set [1] (under the test conditions) is on record as “supported robust growth”.

`CCCCCCCCCCCCCC` [tetradecane]: in data set [1] (under the test conditions), the toxicity to growth entry is reported as “Lack of toxicity”.

B1: CsAAE1: Cannabis sativa acyl activating enzyme 1 (SEQ ID NO: 4), codon-optimized for S. cerevisiae, on plasmid pLOA-059 (protein, listed as Cannabis sativa)
chain: MGKNYKSLDSVVASDFIALGITSEVAETLHGRLAEIVCNYGAATPQTWINIANHILSPDLPFSLHQMLFYGCYKDFGPAPPAWIPDPEKVKSTNLGALLEKRGKEFLGVKYKDPISSFSHFQEFSVRNPEVYWRTVLMDEMKISFSKDPECILRRDDINNPGGSEWLPGGYLNSAKNCLNVNSNKKLNDTMIVWRDEGNDDLPLNKLTLDQLRKRVWLVGYALEEMGLEKGCAIAIDMPMHVDAVVIYLAIVLAGYVVVSIADSFSAPEISTRLRLSKAKAIFTQDHIIRGKKRIPLYSRVVEAKSPMAIVIPCSGSNIGAELRDGDISWDYFLERAKEFKNCEFTAREQPVDAYTNILFSSGTTGEPKAIPWTQATPLKAAADGWSHLDIRKGDVIVWPTNLGWMMGPWLVYASLLNGASIALYNGSPLVSGFAKFVQDAKVTMLGVVPSIVRSWKSTNCVSGYDWSTIRCFSSSGEASNVDEYLWLMGRANYKPVIEMCGGTEIGGAFSAGSFLQAQSLSSFSSQCMGCTLYILDKNGYPMPKNKPGIGELALGPVMFGASKTLLNGNHHDVYFKGMPTLNGEVLRRHGDIFELTSNGYYHAHGRADDTMNIGGIKISSIEIERVCNEVDDRVFETTAIGVPPLGGGPEQLVIFFVLKDSNDTTIDLNQLRLSFNLGLQKKLNPLFKVTRVVPLSSLPRTATNKIMRRVLRQQFSHFE
On to B1, for which, in data set [2], the Olivetol is on record as 2.61 mg/L and the Olivetolic acid was determined as 2.99 mg/L. Further, in data set [2] (out of the tested AAE sequences), the “activity as a hexanoyl-CoA synthetase for olivetol and olivetolic acid production” value is listed as “highest activity”. In data set [3], the Divarin came out at 1.58 mg/L and the Divarinic acid turned out to be 1.51 mg/L.

B2: AtAAE7: acyl activating enzyme 7 from Arabidopsis thaliana (Uniprot Q8VZF1), C-terminal peroxisomal targeting sequence removed, SEQ ID NO: 9 (protein, listed as Arabidopsis thaliana)
chain: MAATKWRDIDDLPKIPANYTALTPLWFLDRAAVVHPTRKSVIHGSREYTWRQTYDRCRRLASALADRSIGPGSTVAIIAPNIPAMYEAHFGVPMCGAVLNCVNIRLNAPTVAFLLSHSQSSVIMVDQEFFTLAEDSLRLMEEKAGSSFKRPLLIVIGDHTCAPESLNRALSKGAIEYEDFLATGDPNYPWQPPADEWQSIALGYTSGTTASPKGVVLHHRGAYIMALSNPLIWGMQDGAVYLWTLPMFHCNGWCFPWSLAVLSGTSICLRQVTAKEVYSMIAKYKVTHFCAAPVVLNAIVNAPKEDTILPLPHTVHVMTAGAAPPPSVLFSMNQKGFRVAHTYGLSETYGPSTVCAWKPEWDSLPPETQAKLNARQGVRYTGMEQLDVIDTQTGKPVPADGKTAGEIVFRGNMVMKGYLKNPEANKETFAGGWFHSGDIAVKHPDNYIEIKDRSKDVIISGGENISSVEVENVVYHHPAVLEASVVARPDERWQESPCAFVTLKSDYEKHDQNKLAQDIMKFCREKLPAYWVPKSVVFGPLPKTATGKIQKHILRTKAKEMGPVPR
As for B2, in data set [2], the Olivetol turned out to be 0.74 mg/L and the Olivetolic acid amounted to 1.60 mg/L. In data set [3], the Divarin came to 7.18 mg/L and the Divarinic acid was found to be 5.63 mg/L. Moreover, in data set [3] (over CsAAE1), the “activity as butyryl-CoA synthetases for divarin and divarinic acid production” value is listed as “several-fold activity improvements”.

For the origin of these results see patent US20250122539A1, “LARGE SCALE PRODUCTION OF DIVARIN, DIVARINIC ACID AND OTHER ALKYL RESORCINOLS BY FERMENTATION” (priority 2021, published 2025).
